Article PMC6691788, “Design and synthesis of phthalazine-based compounds as potent anticancer agents with potential antiangiogenic activity via VEGFR-2 inhibition” (Journal of Enzyme Inhibition and Medicinal Chemistry, 2019)

Experiments:
Test in all cases: NCI 60 cell panel SRB screen
CCRF-CEM = type: cell-based, human; conditions: Homo sapiens, single dose 10 μM, read-out: percent cell growth promotion
RPMI-8226 = type: cell-based; conditions: Homo sapiens; RPMI-8226, single dose 10 μM; read-out: percent cell growth promotion
SR = type: cell-based; conditions: Homo sapiens, single dose 10 μM, read-out: percent cell growth promotion
A549/ATCC = type: cell-based; conditions: Homo sapiens, single dose 10 μM, read-out: percent cell growth promotion
HOP-92 = type: cell-based; conditions: Homo sapiens; HOP-92, single dose 10 μM; read-out: percent cell growth promotion
NCI-H226 = type: cell-based; conditions: Homo sapiens; NCI-H226, single dose 10 μM; read-out: percent cell growth promotion
NCI-H23 = type: cell-based; conditions: Homo sapiens; NCI-H23, single dose 10 μM; read-out: percent cell growth promotion
NCI-H460 = type: cell-based; conditions: Homo sapiens; NCI-H460, single dose 10 μM; read-out: percent cell growth promotion
HCC-2998 = type: cell-based; conditions: Homo sapiens; HCC-2998, single dose 10 μM; read-out: percent cell growth promotion
HCT-116 = type: cell-based; conditions: Homo sapiens; HCT-116, single dose 10 μM; read-out: percent cell growth promotion
KM12 = type: cell-based; conditions: Homo sapiens; KM12, single dose 10 μM; read-out: percent cell growth promotion
SW-620 = type: cell-based; conditions: Homo sapiens; SW-620, single dose 10 μM; read-out: percent cell growth promotion
SNB-19 = type: cell-based; conditions: Homo sapiens; SNB-19, single dose 10 μM; read-out: percent cell growth promotion
SNB-75 = type: cell-based; conditions: Homo sapiens; SNB-75, single dose 10 μM; read-out: percent cell growth promotion
U251 = type: cell-based; conditions: Homo sapiens, U-251; U251, single dose 10 μM; read-out: percent cell growth promotion
MALME-3M = type: cell-based; conditions: Homo sapiens, Malme-3M, read-out: percent cell growth promotion
M14 = type: cell-based; conditions: Homo sapiens, M14, read-out: percent cell growth promotion
SK-MEL-28 = type: cell-based; conditions: Homo sapiens, SK-MEL-28, read-out: percent cell growth promotion
SK-MEL-5 = type: cell-based; conditions: Homo sapiens, SK-MEL-5, read-out: percent cell growth promotion
OVCAR-5 = type: cell-based; conditions: Homo sapiens; OVCAR-5, single dose 10 μM; read-out: percent cell growth promotion
OVCAR-8 = type: cell-based; conditions: Homo sapiens; OVCAR-8, single dose 10 μM; read-out: percent cell growth promotion
NCI/ADR-RES = type: cell-based; conditions: Homo sapiens, single dose 10 μM, read-out: percent cell growth promotion
SK-OV-3 = type: cell-based; conditions: Homo sapiens; SK-OV-3, single dose 10 μM; read-out: percent cell growth promotion
ACHN = type: cell-based; conditions: Homo sapiens, single dose 10 μM, read-out: percent cell growth promotion
RXF 393 = type: cell-based; conditions: Homo sapiens; RXF 393, single dose 10 μM; read-out: percent cell growth promotion
SN12C = type: cell-based; conditions: Homo sapiens, single dose 10 μM, read-out: percent cell growth promotion
TK-10 = type: cell-based, human; conditions: Homo sapiens; TK-10, single dose 10 μM; read-out: percent cell growth promotion

SMILES: c1ccc(N2CCN(c3nncc4ccccc34)CC2)nc1 [Compound 8d, 1–(4-(Pyridin-2-yl)piperazin-1-yl)phthalazine]
- activity at 10 µM (CCRF-CEM): 102%
- activity at 10 µM (RPMI-8226): 107%
- activity at 10 µM (SR): 103%
- activity at 10 µM (A549/ATCC): 100%
- activity at 10 µM (HOP-92): 102%
- activity at 10 µM (NCI-H226): 98.1%
- activity at 10 µM (NCI-H23): 105%
- activity at 10 µM (NCI-H460): 108%
- activity at 10 µM (HCC-2998): 117%
- activity at 10 µM (HCT-116): 103%
- activity at 10 µM (KM12): 104%
- activity at 10 µM (SW-620): 104%
- activity at 10 µM (SNB-19): 113%
- activity at 10 µM (SNB-75): 105%
- activity at 10 µM (U251): 96.9%
- activity at 10 µM (MALME-3M): 109%
- activity at 10 µM (M14): 102%
- activity at 10 µM (SK-MEL-28): 108%
- activity at 10 µM (SK-MEL-5): 97.5%
- activity at 10 µM (OVCAR-5): 105%
- activity at 10 µM (OVCAR-8): 97.8%
- activity at 10 µM (NCI/ADR-RES): 109%
- activity at 10 µM (SK-OV-3): 104%
- activity at 10 µM (ACHN): 115%
- activity at 10 µM (RXF 393): 108%
- activity at 10 µM (SN12C): 102%
- activity at 10 µM (TK-10): 105%

SMILES: Cc1nnc(N2CCN(c3ccccc3F)CC2)c2ccccc12 [Compound 8h, 1–(4-(2-Fluorophenyl)piperazin-1-yl)-4-methylphthalazine]
- activity at 10 µM (CCRF-CEM): 99.7%
- activity at 10 µM (RPMI-8226): 101%
- activity at 10 µM (SR): 95.1%
- activity at 10 µM (A549/ATCC): 89%
- activity at 10 µM (HOP-92): 112%
- activity at 10 µM (NCI-H226): 90.1%
- activity at 10 µM (NCI-H23): 101%
- activity at 10 µM (NCI-H460): 101%
- activity at 10 µM (HCC-2998): 101%
- activity at 10 µM (HCT-116): 95.6%
- activity at 10 µM (KM12): 113%
- activity at 10 µM (SW-620): 106%
- activity at 10 µM (SNB-19): 99.9%
- activity at 10 µM (SNB-75): 109%
- activity at 10 µM (U251): 96.2%
- activity at 10 µM (MALME-3M): 103%
- activity at 10 µM (M14): 95%
- activity at 10 µM (SK-MEL-28): 104%
- activity at 10 µM (SK-MEL-5): 92.9%
- activity at 10 µM (OVCAR-5): 87.9%
- activity at 10 µM (OVCAR-8): 95.3%
- activity at 10 µM (NCI/ADR-RES): 96.9%
- activity at 10 µM (SK-OV-3): 105%
- activity at 10 µM (ACHN): 98.4%
- activity at 10 µM (RXF 393): 99.8%
- activity at 10 µM (SN12C): 100%
- activity at 10 µM (TK-10): 88.7%

SMILES: Cc1nnc(Nc2ccc(NC(=O)c3ccc(Cl)cc3)cc2)c2ccccc12 [Compound 5d, 4-Chloro-N-(4–(4-methylphthalazin-1-ylamino)phenyl)benzamide]
- activity at 10 µM (CCRF-CEM): 91%
- activity at 10 µM (RPMI-8226): 89.3%
- activity at 10 µM (SR): 86.3%
- activity at 10 µM (A549/ATCC): 97.9%
- activity at 10 µM (HOP-92): 55.4%
- activity at 10 µM (NCI-H226): 76.3%
- activity at 10 µM (NCI-H23): 95%
- activity at 10 µM (NCI-H460): 96.4%
- activity at 10 µM (HCC-2998): 125%
- activity at 10 µM (HCT-116): 92.2%
- activity at 10 µM (KM12): 101%
- activity at 10 µM (SW-620): 92.7%
- activity at 10 µM (SNB-19): 92%
- activity at 10 µM (SNB-75): 81.2%
- activity at 10 µM (U251): 81%
- activity at 10 µM (MALME-3M): 99%
- activity at 10 µM (M14): 97.1%
- activity at 10 µM (SK-MEL-28): 106%
- activity at 10 µM (SK-MEL-5): 78.7%
- activity at 10 µM (OVCAR-5): 98.5%
- activity at 10 µM (OVCAR-8): 93.1%
- activity at 10 µM (NCI/ADR-RES): 96%
- activity at 10 µM (SK-OV-3): 83.5%
- activity at 10 µM (ACHN): 111%
- activity at 10 µM (RXF 393): 98.7%
- activity at 10 µM (SN12C): 91%
- activity at 10 µM (TK-10): 109%
